These results are taken from US20250296939A1, “BENZOTHIOPHENE COMPOUND” (Kyoto Pharmaceutical Industries, Ltd., priority 2022, published 2025).

For experiment [1], the target named is GST-fused human Keap1 (amino acid residues: 325-642) protein (Homo sapiens (Human), UniProt Q14145). Put plainly: FP assay (in vitro): inhibition of binding between Nrf2 and Keap1 by fluorescence polarization. Particulars: 20 nM GST-fused human Keap1, 10 nM FITC-labeled Nrf2 peptide, 2 hr at room temperature. On the technique in general: Fluorescence polarisation rises when a labelled molecule tumbles more slowly, as on binding a larger partner.
Sequence of GST-fused human Keap1 (amino acid residues: 325-642) protein (Q14145 325-624 limits assumed): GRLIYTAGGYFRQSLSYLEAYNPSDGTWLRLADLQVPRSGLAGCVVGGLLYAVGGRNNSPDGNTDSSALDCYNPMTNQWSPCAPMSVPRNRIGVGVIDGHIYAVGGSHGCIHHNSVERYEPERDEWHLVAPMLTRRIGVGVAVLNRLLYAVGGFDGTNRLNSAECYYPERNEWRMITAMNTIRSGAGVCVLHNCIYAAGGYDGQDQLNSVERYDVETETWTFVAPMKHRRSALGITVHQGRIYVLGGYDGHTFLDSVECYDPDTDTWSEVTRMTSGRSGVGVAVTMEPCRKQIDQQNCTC

Experiment [2] concerns NQO1 activity in rat kidney. Put plainly: NQO1 activity assay in rat kidney (single administration). Particulars: SD rats (male), oral 3 mg/kg single administration; for NQO1 activity 24 hr later: 24 hr after administration; for NQO1 activity 48 hr later: 48 hr after administration. The format is in vivo. How it is done: Experimental Example 3: NQO1 Activity Assay in Rat Kidney (Single Administration)
The test compound solution for administration was prepared by dissolving or suspending the test compound in 0.5 w/v % methylcellulose solution.
The test compound was administered orally (3 mg/kg, 2 mL/kg) to SD rats (male, Japan SLC). The solvent group was used as a control group. The test compound group was anesthetized with isoflurane 24 and 48 hr after administration, and the control group was anesthetized with isoflurane 24 hr after administration, and the rats were euthanized by abdominal aortotomy with blood release. The right kidney was immediately removed, and the renal cortex and medullary portion of the kidney were cut out for measurement of NQO1 activity.
Homogenization buffer (10 mM Tris-HCl, 250 mM sucrose, pH 7.4) and assay buffer (25 mM Tris-HCl, 0.7 mg/mL BSA, pH 7.4) were prepared.
1 mL of homogenization buffer was added to the collected kidney samples, and the organs were homogenized uniformly in ice using a Polytron homogenizer (PHYSCOTRON, Microtec Co. Ltd.) or TissueLyser II (QIAGEN). Homogenized samples were centrifuged (MX-305, TOMY) at 9000×g for 20 minutes at 4° C. The supernatant was then scalped with homogenization buffer to approximately 2 ml and ultracentrifuged (centrifuge; OptimaL-100XP, rotor; 50.4 Ti, Beckman Coulter) at 100,000×g for 60 min at 4° C. The protein concentration of the supernatant was measured with the Protein Assay BCA kit (#06385-00, Nacalai Tesque), and samples were diluted to 5 μg protein/30 μL with homogenization buffer. 2,6-Dichlorophenolindophenol (DCPIP) reaction buffer (assay buffer with 200 μM NADPH and 160 μM DCPIP, containing 1/1000 volume of DMSO or 20 μM dicoumarol DMSO solution) was prepared immediately before the measurement.
The 230 μL of each concentration of calibration solution was added to a 96-well plate (CORNING, 9017). To 30 μL of the sample solution was added 200 μL of DMSO-containing DCPIP reaction buffer or dicoumarol-containing DCPIP reaction buffer. The absorbance at 600 nm was immediately measured on a SpectraMax PLUS384 (Molecular devices) at 1 minute intervals for 10 minutes. […] A regression line was used to create the calibration curve.
The difference between the DCPIP decrease in the wells with DMSO-containing DCPIP reaction buffer and the DCPIP decrease in the wells with dicoumarol-containing DCPIP reaction buffer was divided by the amount of protein (mg) and time (min) to obtain NQO1 activity (nmol/mg/min). In Table 4 below, the NQO1 activity of the test compound-administered groups is expressed as a percentage of the control group.

The subject of experiment [3] is NQO1 activity in Hepa1c1c7 cells. Put plainly: NAD(P)H: quinone oxidoreductase-1 (NQO1) enzyme induction assay (in vitro). The format is cell-based, mouse. Particulars: Mus musculus, Hepa-1c1c7, NQO1 activity upon addition of 400 nM of test compound, about 48 hr, ratio from the base without the compound. The gist of the method: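 Mouse Hepa1c1c7 hepatoma cells were treated with 400 nM compound for about 48 h, then lysed with digitonin/EDTA. NQO1 activity was measured as menadione-mediated MTT reduction with a G6P/G6PDH NADPH-regenerating system, stopped with dicoumarol, and read at A610. Values are the activity ratio versus untreated base wells.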

One may read the IC50 as the concentration that inhibits the measured activity by half. A higher IC50 goes with weaker potency. The term fold induction denotes the ratio of treated to control signal. Regarding `Cc1c([C@H](CC(=O)O)c2cc(CN3Cc4nc(O)ccc4O[C@H](C4CC4)C3)c3sccc3c2)ccc2c1nnn2C` [Example 5, (3R)-3-(7-{[(2R)-2-Cyclopropyl-7-hydroxy-2,3-dihydropyrido[2,3-f][1,4]oxazepin-4(5H)-yl]methyl}-1-benzothiophen-5-yl)-3-(1,4-dimethyl-1H-benzotriazol-5-yl)propanoic acid], the concentration for half-maximal inhibition (IC50) in experiment [1] is 0.01 to 0.03 µM. In addition, in experiment [2], the “NQO1 activity 24 hr later” value is reported as 9.4 percentage of the control group and the “NQO1 activity 48 hr later” value is listed as 10.9 percentage of the control group. In addition, in experiment [3], the fold induction at 0.4 µM was > 5.

Take `CC[C@@H]1CN(Cc2cc([C@@H](c3ccc4c(nnn4C)c3C)C(C)(C)C(=O)O)cc3ccsc23)Cc2nc(O)ccc2O1` [Example 11, (3S)-3-(1,4-Dimethyl-1H-benzotriazol-5-yl)-3-(7-{[(2R)-2-ethyl-7-hydroxy-2,3-dihydropyrido[2,3-f][1,4]oxazepin-4(5H)-yl]methyl}-1-benzothiophen-5-yl)-2,2-dimethylpropanoic acid]: the IC50 in experiment [1] is ≤ 0.01 µM. Also, in experiment [2], the “NQO1 activity 24 hr later” value is listed as 9.3 percentage of the control group and the “NQO1 activity 48 hr later” value is recorded as 11.0 percentage of the control group. Besides, in experiment [3], the fold induction at 0.4 µM is > 5.

In experiment [1], `Cc1c([C@H](c2cc(CN3Cc4nc(O)ccc4OC4(CC4)C3)c3sccc3c2)C(C)(C)C(=O)O)ccc2c1nnn2C` [Example 13, (3S)-3-(1,4-Dimethyl-1H-benzotriazol-5-yl)-3-{7-[(7′-hydroxy-3′H-spiro[cyclopropane-1,2′-pyrido[2,3-f][1,4]oxazepin]-4′(5′H)-yl)methyl]-1-benzothiophen-5-yl}-2,2-dimethylpropanoic acid] registered an IC50 of 0.01 to 0.03 µM. Moreover, in experiment [2], the “NQO1 activity 24 hr later” value is listed as 6.5 percentage of the control group and the “NQO1 activity 48 hr later” value is 11.7 percentage of the control group. Besides, in experiment [3], the fold induction at 0.4 µM was > 5.
